Results reported in ChEMBL document CHEMBL3396978, “Design, synthesis of new β-carboline derivatives and their selective anti-HIV-2 activity” (Bioorg Med Chem Lett, 2015).
pEC50: −log10 of the molar value. Calls of active or inactive are those of the source. The rule behind the calls is not given here.

test system: Human immunodeficiency virus; assay: Antiviral activity against HIV; assay type: functional, organism-based; settings: Human immunodeficiency virus 1

In the case of `O=C(O)c1cc2c([nH]c3ccccc32)c(-c2ccc(CO)o2)n1` [FLAZINE], the pEC50 was 5.63.

biological target: Reverse transcriptase (Human immunodeficiency virus 2) (UniProt Q06347); assay: Inhibition of HIV2 reverse transcriptase using poly(C).oligo(dG) template/primer after 30 mins at 200 ug/mL; settings: not given
Sequence (Q06347 as listed by the source): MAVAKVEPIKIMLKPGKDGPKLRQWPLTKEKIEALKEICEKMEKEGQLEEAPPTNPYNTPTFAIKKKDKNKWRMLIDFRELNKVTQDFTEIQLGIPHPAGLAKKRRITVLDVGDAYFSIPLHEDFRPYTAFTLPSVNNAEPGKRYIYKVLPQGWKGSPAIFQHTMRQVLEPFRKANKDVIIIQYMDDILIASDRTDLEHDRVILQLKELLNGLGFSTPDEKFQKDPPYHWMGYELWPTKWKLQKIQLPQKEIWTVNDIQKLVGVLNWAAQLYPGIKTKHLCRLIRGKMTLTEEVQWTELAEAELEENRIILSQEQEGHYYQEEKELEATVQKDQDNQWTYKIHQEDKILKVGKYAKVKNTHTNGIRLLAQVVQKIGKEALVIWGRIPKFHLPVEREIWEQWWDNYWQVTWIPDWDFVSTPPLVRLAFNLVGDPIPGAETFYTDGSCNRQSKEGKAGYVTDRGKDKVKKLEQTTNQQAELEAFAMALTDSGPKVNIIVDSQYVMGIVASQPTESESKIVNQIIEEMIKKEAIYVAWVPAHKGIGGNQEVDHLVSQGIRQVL

In the case of `COc1ccccc1N1CCN(C(=O)c2cc3c4ccccc4n(C)c3c(-c3ccccc3)n2)CC1`, the inhibition was “inactive”.
In the case of `Cn1c2ccccc2c2cc(C(=O)N3CCN(c4ccccc4F)CC3)nc(-c3ccccc3)c21`, the inhibition was “inactive”.
For `Cc1ccc(N2CCN(C(=O)c3cc4c5ccccc5n(C)c4c(-c4ccccc4)n3)CC2)cc1`, the inhibition was “inactive”.
For `Cn1c2ccccc2c2cc(C(=O)N3CCN(c4ccccc4)CC3)nc(-c3ccccc3)c21`, the inhibition was “inactive”.
With `Cn1c2ccccc2c2cc(C(=O)N3CCN(c4ccc(F)cc4)CC3)nc(-c3ccccc3)c21` the inhibition was “inactive”.

test system: not listed separately; assay: Selectivity index, ratio of CC50 for mock-infected human […] cells to EC50 for HIV2 ROD infected in human MT4 cells; assay type: toxicity, cell-based; settings: read-out: Ratio CC50/EC50

Compared with `Cn1c2ccccc2c2cc(C(=O)N3CCN(c4ccncc4)CC3)nc(-c3ccccc3)c21`, `Cn1c2ccccc2c2cc(C(=O)N3CCN(c4ccccc4)CC3)nc(-c3ccccc3)c21` is higher in selectivity ratio: under 1 for the first, over 8 for the second.

First: COc1ccccc1N1CCN(C(=O)c2cc3c4ccccc4n(C)c3c(-c3ccccc3)n2)CC1
Second: Cc1ccccc1N1CCN(C(=O)c2cc3c4ccccc4n(C)c3c(-c3ccccc3)n2)CC1
The selectivity ratio of the first is higher: 8 for the first, under 1 for the second.

`O=c1[nH]cnc2c1ncn2[C@H]1CC[C@@H](CO)O1` [DIDANOSINE] and `Nc1ccn([C@@H]2CS[C@H](CO)O2)c(=O)n1` [LAMIVUDINE] cannot be ordered by selectivity ratio: over 21.7 for the first, over 5.6 for the second.

`Cn1c2ccccc2c2cc(C(=O)N3CCN(c4cccc(Cl)c4Cl)CC3)nc(-c3ccccc3)c21` and `Cn1c2ccccc2c2cc(C(=O)N3CCN(c4ccccc4Cl)CC3)nc(-c3ccccc3)c21` cannot be ordered by selectivity ratio: under 1 for the first, under 1 for the second.

First: Cn1c2ccccc2c2cc(C(=O)N3CCN(c4ccccc4F)CC3)nc(-c3ccccc3)c21
Second: Cn1c2ccccc2c2cc(C(=O)N3CCN(c4ccc(F)cc4)CC3)nc(-c3ccccc3)c21
The selectivity ratio of the first is lower: 9 for the first, over 72 for the second.

Compared with `Cc1ccc(N2CCN(C(=O)c3cc4c5ccccc5n(C)c4c(-c4ccccc4)n3)CC2)cc1`, `COc1cccc(N2CCN(C(=O)c3cc4c5ccccc5n(C)c4c(-c4ccccc4)n3)CC2)c1` is lower in selectivity ratio: 9 for the first, under 1 for the second.

First: Cc1cn([C@H]2C[C@H](N=[N+]=[N-])[C@@H](CO)O2)c(=O)[nH]c1=O [ZIDOVUDINE]
Second: Cn1c2ccccc2c2cc(C(=O)N3CCN(c4cccc(Cl)c4)CC3)nc(-c3ccccc3)c21
The selectivity ratio of the first is higher: over 12500 for the first, under 1 for the second.

`Cn1c2ccccc2c2cc(C(=O)N3CCN(Cc4ccccc4)CC3)nc(-c3ccccc3)c21` and `Cn1c2ccccc2c2cc(C(=O)N3CCN(c4ccccn4)CC3)nc(-c3ccccc3)c21` cannot be ordered by selectivity ratio: under 1 for the first, under 1 for the second.

biological target: Reverse transcriptase (Human immunodeficiency virus 2) (UniProt Q06347); assay: Inhibition of HIV2 reverse transcriptase using poly(A).oligo(dT) template/primer after 30 mins at 200 ug/mL; settings: not given

With `COc1ccccc1N1CCN(C(=O)c2cc3c4ccccc4n(C)c3c(-c3ccccc3)n2)CC1` the inhibition was “inactive”.
With `Cn1c2ccccc2c2cc(C(=O)N3CCN(c4ccccc4F)CC3)nc(-c3ccccc3)c21` the inhibition was “inactive”.
In the case of `Cc1ccc(N2CCN(C(=O)c3cc4c5ccccc5n(C)c4c(-c4ccccc4)n3)CC2)cc1`, the inhibition was “inactive”.
With `Cn1c2ccccc2c2cc(C(=O)N3CCN(c4ccccc4)CC3)nc(-c3ccccc3)c21` the inhibition was “inactive”.
With `Cn1c2ccccc2c2cc(C(=O)N3CCN(c4ccc(F)cc4)CC3)nc(-c3ccccc3)c21` the inhibition was “inactive”.

test system: Human immunodeficiency virus 2; assay: Antiviral activity against HIV2; assay type: functional, organism-based; settings: not given

`NC(=O)c1cc2c([nH]c3ccccc32)c(-c2ccc(CO)o2)n1` gave a pEC50 of 6.24.

test system: Human immunodeficiency virus 1; assay: Antiviral activity against HIV1; assay type: functional, organism-based; settings: not given

Work on `NC(=O)c1cc2c([nH]c3ccccc32)c(-c2ccc(CO)o2)n1` yielded a pEC50 of 6.42.

test system: Human immunodeficiency virus 2; assay: Antiviral activity against HIV2 ROD infected in human MT4 cells assessed as protection against virus-induced cytotoxicity after 5 days by MTT assay; assay type: functional, organism-based; settings: Human immunodeficiency virus 2, ISOLATE ROD, MT4, 120 h

`Cn1c2ccccc2c2cc(C(=O)N3CCN(c4ccncc4)CC3)nc(-c3ccccc3)c21` and `Cn1c2ccccc2c2cc(C(=O)N3CCN(c4ccccc4)CC3)nc(-c3ccccc3)c21` cannot be ordered by pEC50: under 5.40 for the first, 4.53 for the second.

Going from `COc1ccccc1N1CCN(C(=O)c2cc3c4ccccc4n(C)c3c(-c3ccccc3)n2)CC1` to `Cc1ccccc1N1CCN(C(=O)c2cc3c4ccccc4n(C)c3c(-c3ccccc3)n2)CC1`, the pEC50 falls from 5.49 to under 4.77.

`O=c1[nH]cnc2c1ncn2[C@H]1CC[C@@H](CO)O1` [DIDANOSINE] and `Nc1ccn([C@@H]2CS[C@H](CO)O2)c(=O)n1` [LAMIVUDINE] are within 0.2 log units of each other in pEC50: 5.64 for the first, 5.45 for the second.

Compared with `Cn1c2ccccc2c2cc(C(=O)N3CCN(c4ccc(Cl)cc4)CC3)nc(-c3ccccc3)c21`, `Cc1ccc(N2CCN(C(=O)c3cc4c5ccccc5n(C)c4c(-c4ccccc4)n3)CC2)cc1` is higher in pEC50: under 3.68 for the first, 5.48 for the second. The second is the more potent here.

`Cn1c2ccccc2c2cc(C(=O)N3CCN(c4cccc(Cl)c4Cl)CC3)nc(-c3ccccc3)c21` and `Cn1c2ccccc2c2cc(C(=O)N3CCN(c4ccccc4Cl)CC3)nc(-c3ccccc3)c21` cannot be ordered by pEC50: under 4.19 for the first, under 4.63 for the second.

`Cc1ccnc2c1NC(=O)c1cccnc1N2C1CC1` [NEVIRAPINE] and `Cn1c2ccccc2c2cc(C(=O)N3CCN(c4ccccn4)CC3)nc(-c3ccccc3)c21` cannot be ordered by pEC50: under 5.40 for the first, under 4.72 for the second.

First: Cn1c2ccccc2c2cc(C(=O)N3CCN(c4ccccc4F)CC3)nc(-c3ccccc3)c21
Second: Cn1c2ccccc2c2cc(C(=O)N3CCN(c4ccc(F)cc4)CC3)nc(-c3ccccc3)c21
The pEC50 of the first is 0.32 log units lower: 5.27 for the first, 5.59 for the second.

`COc1ccc(N2CCN(C(=O)c3cc4c5ccccc5n(C)c4c(-c4ccccc4)n3)CC2)cc1` and `COc1cccc(N2CCN(C(=O)c3cc4c5ccccc5n(C)c4c(-c4ccccc4)n3)CC2)c1` cannot be ordered by pEC50: under 3.68 for the first, under 3.87 for the second.

Going from `Cc1cn([C@H]2C[C@H](N=[N+]=[N-])[C@@H](CO)O2)c(=O)[nH]c1=O` [ZIDOVUDINE] to `Cn1c2ccccc2c2cc(C(=O)N3CCN(c4cccc(Cl)c4)CC3)nc(-c3ccccc3)c21`, the pEC50 falls from 8.80 to under 3.96. The first is the more potent here.

`Cn1c2ccccc2c2cc(C(=O)N3CCN(Cc4ccccc4)CC3)nc(-c3ccccc3)c21` and `Cn1c2ccccc2c2cc(C(=O)N3CCN(c4ccc([N+](=O)[O-])cc4)CC3)nc(-c3ccccc3)c21` cannot be ordered by pEC50: under 4.66 for the first, under 3.69 for the second.

test system: HeLa; assay: Cytotoxicity against mock-infected human […] cells by MTT assay; assay type: functional; settings: not given

Compared with `Cn1c2ccccc2c2cc(C(=O)N3CCN(c4ccncc4)CC3)nc(-c3ccccc3)c21`, `Cn1c2ccccc2c2cc(C(=O)N3CCN(c4ccccc4)CC3)nc(-c3ccccc3)c21` is higher in CC50: 4.02 µM for the first, over 224 µM for the second.

`COc1ccccc1N1CCN(C(=O)c2cc3c4ccccc4n(C)c3c(-c3ccccc3)n2)CC1` and `Cc1ccccc1N1CCN(C(=O)c2cc3c4ccccc4n(C)c3c(-c3ccccc3)n2)CC1` are within 1.5-fold of each other in CC50: 25.3 µM for the first, 16.9 µM for the second.

`O=c1[nH]cnc2c1ncn2[C@H]1CC[C@@H](CO)O1` [DIDANOSINE] and `Nc1ccn([C@@H]2CS[C@H](CO)O2)c(=O)n1` [LAMIVUDINE] cannot be ordered by CC50: over 50 µM for the first, over 20 µM for the second.

Going from `Cn1c2ccccc2c2cc(C(=O)N3CCN(c4ccc(Cl)cc4)CC3)nc(-c3ccccc3)c21` to `Cc1ccc(N2CCN(C(=O)c3cc4c5ccccc5n(C)c4c(-c4ccccc4)n3)CC2)cc1`, the CC50 falls from over 208 µM to 29.6 µM.

First: Cn1c2ccccc2c2cc(C(=O)N3CCN(c4cccc(Cl)c4Cl)CC3)nc(-c3ccccc3)c21
Second: Cn1c2ccccc2c2cc(C(=O)N3CCN(c4ccccc4Cl)CC3)nc(-c3ccccc3)c21
The CC50 of the first is 2.7-fold higher: 63.9 µM for the first, 23.6 µM for the second.

`Cc1ccnc2c1NC(=O)c1cccnc1N2C1CC1` [NEVIRAPINE] and `Cn1c2ccccc2c2cc(C(=O)N3CCN(c4ccccn4)CC3)nc(-c3ccccc3)c21` cannot be ordered by CC50: over 4 µM for the first, 19.2 µM for the second.

Compared with `Cn1c2ccccc2c2cc(C(=O)N3CCN(c4ccccc4F)CC3)nc(-c3ccccc3)c21`, `Cn1c2ccccc2c2cc(C(=O)N3CCN(c4ccc(F)cc4)CC3)nc(-c3ccccc3)c21` is higher in CC50: 50.6 µM for the first, over 189 µM for the second.

First: COc1ccc(N2CCN(C(=O)c3cc4c5ccccc5n(C)c4c(-c4ccccc4)n3)CC2)cc1
Second: COc1cccc(N2CCN(C(=O)c3cc4c5ccccc5n(C)c4c(-c4ccccc4)n3)CC2)c1
The CC50 of the first is higher: over 210 µM for the first, 134 µM for the second.

`Cc1cn([C@H]2C[C@H](N=[N+]=[N-])[C@@H](CO)O2)c(=O)[nH]c1=O` [ZIDOVUDINE] and `Cn1c2ccccc2c2cc(C(=O)N3CCN(c4cccc(Cl)c4)CC3)nc(-c3ccccc3)c21` cannot be ordered by CC50: over 25 µM for the first, 111 µM for the second.

Going from `Cn1c2ccccc2c2cc(C(=O)N3CCN(Cc4ccccc4)CC3)nc(-c3ccccc3)c21` to `Cn1c2ccccc2c2cc(C(=O)N3CCN(c4ccc([N+](=O)[O-])cc4)CC3)nc(-c3ccccc3)c21`, the CC50 rises from 21.7 µM to over 204 µM.

test system: Human immunodeficiency virus 1; assay: Antiviral activity against HIV1 3B infected infected in human MT4 cells assessed as protection against virus-induced cytotoxicity after 5 days by MTT assay; assay type: functional, organism-based; settings: Human immunodeficiency virus 1, 3B, MT4, 120 h

`Cn1c2ccccc2c2cc(C(=O)N3CCN(c4ccncc4)CC3)nc(-c3ccccc3)c21` and `Cn1c2ccccc2c2cc(C(=O)N3CCN(c4ccccc4)CC3)nc(-c3ccccc3)c21` cannot be ordered by pEC50: under 5.40 for the first, under 3.65 for the second.

`COc1ccccc1N1CCN(C(=O)c2cc3c4ccccc4n(C)c3c(-c3ccccc3)n2)CC1` and `Cc1ccccc1N1CCN(C(=O)c2cc3c4ccccc4n(C)c3c(-c3ccccc3)n2)CC1` cannot be ordered by pEC50: under 4.60 for the first, under 4.77 for the second.

Going from `O=c1[nH]cnc2c1ncn2[C@H]1CC[C@@H](CO)O1` [DIDANOSINE] to `Nc1ccn([C@@H]2CS[C@H](CO)O2)c(=O)n1` [LAMIVUDINE], the pEC50 rises from 5.59 to 6.05 (0.46 log units).

`Cn1c2ccccc2c2cc(C(=O)N3CCN(c4ccc(Cl)cc4)CC3)nc(-c3ccccc3)c21` and `Cc1ccc(N2CCN(C(=O)c3cc4c5ccccc5n(C)c4c(-c4ccccc4)n3)CC2)cc1` cannot be ordered by pEC50: under 3.68 for the first, under 4.53 for the second.

`Cn1c2ccccc2c2cc(C(=O)N3CCN(c4cccc(Cl)c4Cl)CC3)nc(-c3ccccc3)c21` and `Cn1c2ccccc2c2cc(C(=O)N3CCN(c4ccccc4Cl)CC3)nc(-c3ccccc3)c21` cannot be ordered by pEC50: under 4.19 for the first, under 4.63 for the second.

Compared with `Cc1ccnc2c1NC(=O)c1cccnc1N2C1CC1` [NEVIRAPINE], `Cn1c2ccccc2c2cc(C(=O)N3CCN(c4ccccn4)CC3)nc(-c3ccccc3)c21` is lower in pEC50: 7.57 for the first, under 4.72 for the second. The first is the more potent here.

`Cn1c2ccccc2c2cc(C(=O)N3CCN(c4ccccc4F)CC3)nc(-c3ccccc3)c21` and `Cn1c2ccccc2c2cc(C(=O)N3CCN(c4ccc(F)cc4)CC3)nc(-c3ccccc3)c21` cannot be ordered by pEC50: under 4.30 for the first, under 3.72 for the second.

`COc1ccc(N2CCN(C(=O)c3cc4c5ccccc5n(C)c4c(-c4ccccc4)n3)CC2)cc1` and `COc1cccc(N2CCN(C(=O)c3cc4c5ccccc5n(C)c4c(-c4ccccc4)n3)CC2)c1` cannot be ordered by pEC50: under 3.68 for the first, under 3.87 for the second.

First: Cc1cn([C@H]2C[C@H](N=[N+]=[N-])[C@@H](CO)O2)c(=O)[nH]c1=O [ZIDOVUDINE]
Second: Cn1c2ccccc2c2cc(C(=O)N3CCN(c4cccc(Cl)c4)CC3)nc(-c3ccccc3)c21
The pEC50 of the first is higher: 8.72 for the first, under 3.96 for the second.

`Cn1c2ccccc2c2cc(C(=O)N3CCN(Cc4ccccc4)CC3)nc(-c3ccccc3)c21` and `Cn1c2ccccc2c2cc(C(=O)N3CCN(c4ccc([N+](=O)[O-])cc4)CC3)nc(-c3ccccc3)c21` cannot be ordered by pEC50: under 4.66 for the first, under 3.69 for the second.
